What was measured:
[1] = system: NEM157i, SU-DIPG-IVi and NEM163i DMG cells; experiment: Proliferation / cell viability assay (Sulforhodamine B) in DMG cell lines; type: cell-based, human; details: SU-DIPG-IVi and NEM157i; up to 30 μM; absence of GSK-126
Experimental: Cell growth was measured with the In vitro Toxicology Assay kit (Sulforhodamine B, Sigma Aldrich, Saint Quentin Fallavier, France) according to manufacturer's instructions. Cells were plated at a density of 2000 cells per well in 96-well plates in triplicates. Absorbance was measured at 565 nm using the CLARIOstar multiplate reader (BMG Labtech, Champigny-sur-Marne, France) at indicated time points.

[2] = system: NEM157i, NEM163i and primary BXdmg1 cells; experiment: DMG cell migration, wound scratch assay (IncuCyte); type: cell-based, human
Experimental: 2×10^4 cells/well were placed in a 96-well and incubated for 24h. An IncuCyte Wound Maker (96-pin wound making tool) was used to make scratches.
Migration was monitored by using the IncuCyte S3 live-cell analysis system (Essen BioScience, Ltd, Royston Hertfordshire, United Kingdom). […] Following functions have been used to optimize visibility of the cells: greyscale mode, bichrome mode, negative, contrast/luminosity, exposition/gamma, negative.

[3] = system: Huh6 and HepG2 hepatoblastoma cells; experiment: Growth and viability of hepatoblastoma cells (Huh6 and HepG2), 2D and 3D spheroid; type: cell-based, human
Experimental: (§1) For 2D culture, a total of 2,000 cells/well for Huh6 and 3,000 cells/well for HepG2 were seeded in 96-well microtiter plates. Cell growth was measured at 24 h, 48h, 72h or 96h after genetic manipulation and at 48h or 72h after drug treatment using the in vitro MTS assay Kit or Sulforhodamine B (SRB, Absorbance at 565 nm) assay (Sigma) following manufacturer's instructions. For 3D culture, spheroids were formed as described above and microplates were incubated in an IncuCyte® S3 live cell analysis system and scanned every 8 hours. For genetic manipulation, the lentiviral transductions or the gene depletions were done before the plating. For drug treatments, depending on the experiment and the drug, spheroids were treated at day 4 or 5 for 48h or 72h. Cell viability assay in spheroids was done using 1 μM calcein AM (BioLegend) and 2 μM ethidium homodimer 1 (Sigma) for 30 minutes at 37° C. Spheroids were imaged using an IncuCyte® S3 live cell analysis system. For all cell viability assays, drugs were used at half maximal inhibitory concentration (IC50).

[4] = system: Huh6 and HepG2 cells; experiment: Clonogenicity assay; type: cell-based, human; details: GSK-126 3 and 4 μM for Huh6 and HepG2; ATR 8 μM; SIM 4 μM; 10 days
Experimental: Huh6 and HepG2 cells were seeded at 500 and 1000 cells/well respectively in 12-well plates. After attachment, cells were treated with drugs.
Following incubation at 37° C. for 10 days, the cells were fixed with 4% PFA and stained with 0.05% crystal violet. Reading under the Fusion FX (Vilber Lourmat).

[5] = system: Huh6 cells; experiment: Huh6 tumor xenografts in NSG mice; type: in vivo, NOD/LtSz-scid IL2R gamma null (NSG) mice; details: intraperitoneal; GSK-126 50 mg/kg, ATR 20 mg/kg 3-times a week; cisplatin 1 mg/kg twice a week
Experimental: NOD/LtSz-scid IL2R gamma null (NSG) mice were bred in standard conditions compliant with regulatory bodies (French government). Sterilized food and water were accessible ad libitum. One million of Huh6 cells in 50% of Matrigel were subcutaneously injected in a total volume of 100 μl in the right flank of 8- to 9-week-old female mice (26-32 g; APAFIS #32917-2021121316283534 v2, Agreement #B33063916, Ministère de l'Enseignement Supérieur, de la Recherche et de l'Innovation).
Tumor growth was monitored by caliper measurement until tumors reached an average volume of 250 mm3 (at day 12, see arrow). […] The vehicle (PBS with 5% DMSO) was injected 3-times a week. Tumor growth was monitored during 16 additional days until tumors control reached a size of 2000 mm3. Thus, all mice were euthanized. Blood was collected from all euthanatized mice and circulating ASAT, ALAT, creatinine, and urea were measured to evaluate the toxicity of the different treatments on the liver and kidneys.

[6] = rat; cited from earlier work
[7] = system: histone H3K27me3 in breast and prostate cancer cells; details: cited from earlier work
[8] = system: HepG2 cells; experiment: Cell viability assay (CellTiter 96 AQueous One / MTS) in HepG2; type: cell-based, human
Experimental: as §1

COCCNC(=O)Nc1ccc2nc(-c3cccs3)c(-c3cccs3)nc2c1 [ACSS2 inhibitor]
effect on DMG cell proliferation, inhibitor alone [1]: no effect

CC(C)c1c(C(=O)Nc2ccccc2)c(-c2ccccc2)c(-c2ccc(F)cc2)n1CC[C@@H](O)C[C@@H](O)CC(=O)O [Atorvastatin]
effect on DMG cell proliferation, inhibitor alone [1]: no effect
migration compared to DMSO [2]: slowed
concentration with antitumor effect, statin alone ([3]; 72 h): ≥ 50 µM
proliferation and survival of hepatoblastoma cells (clonogenic cell assay) [4]: little effect
development of hepatoblastoma in mice (tumor volume) [5]: no effect

CCCc1cc(C)[nH]c(=O)c1CNC(=O)c1cc(-c2ccnc(N3CCN(C)CC3)c2)cc2c1cnn2C(C)C [GSK343, N-[(6-methyl-2-oxo-4-propyl-1H-pyridin-3-yl)methyl]-6-[2-(4-methylpiperazin-1-yl)pyridin-4-yl]-1-propan-2-ylindazole-4-carboxamide]
clearance [6]: high clearance
histone H3K27me3 level [7]: suppress

Cc1cc(C)c(CNC(=O)c2cc(-c3ccc(N4CCN(C)CC4)nc3)cc3c2cnn3C(C)C)c(=O)[nH]1 [GSK926, N-[(4,6-dimethyl-2-oxo-1H-pyridin-3-yl)methyl]-6-[6-(4-methylpiperazin-1-yl)pyridin-3-yl]-1-propan-2-ylindazole-4-carboxamide]
histone H3K27me3 level [7]: suppress

CCC(C)(C)C(=O)O[C@H]1C[C@@H](C)C=C2C=C[C@H](C)[C@H](CC[C@@H]3C[C@@H](O)CC(=O)O3)[C@H]21 [Simvastatin]
concentration with antitumor effect, statin alone ([3]; 72 h): ≥ 20 µM

CCN(c1cc(-c2ccc(CN3CCOCC3)cc2)cc(C(=O)NCc2c(C)cc(C)[nH]c2=O)c1C)C1CCOCC1 [Tazemetostat, N-[(4,6-dimethyl-2-oxo-1H-pyridin-3-yl)methyl]-3-[ethyl(oxan-4-yl)amino]-2-methyl-5-[4-(morpholin-4-ylmethyl)phenyl]benzamide]
effective concentrations on growth of hepatoblastoma cells ([3]; 48 h): above 20 μM
sensitivity of hepatoblastoma cells in presence of Simvastatin or Atorvastatin ([3]; 72 h, 8 μM Atorvastatin or 4 μM Simvastatin): significantly potentiates

CN(C/C=C/C#CC(C)(C)C)Cc1cccc2ccccc12 [Terbinafine]
effect on DMG cell proliferation, inhibitor alone [1]: no effect

N.N.[Cl][Pt][Cl] [cisplatin]
IC50 [8]: 12 µM
development of hepatoblastoma in mice (tumor volume) [5]: impeded tumor growth

From patent US20240408081A1, “NOVEL SYNERGISTIC COMBINATIONS AND METHODS OF USE THEREOF FOR TREATING CANCERS” (UNIVERSITE DE BORDEAUX, priority 2021, published 2024)
